Reference: BindingDB's records for doi:10.1016/0167-0115(94)90537-1 (Universit&Eacute, 1994)
Peptide text beside a SMILES is read from it.

Biological target: T1, VIP peptides (Rattus norvegicus, UniProt P01283)
T1 sequence (P01283 whole entry): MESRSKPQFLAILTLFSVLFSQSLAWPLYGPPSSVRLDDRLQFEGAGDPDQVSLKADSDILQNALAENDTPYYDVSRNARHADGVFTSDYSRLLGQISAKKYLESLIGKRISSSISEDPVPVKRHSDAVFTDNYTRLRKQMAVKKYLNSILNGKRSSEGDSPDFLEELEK

Ki [nM]	Compound
2	CC[C@H](C)[C@H](NC(=O)CNC(=O)[C@H](CC(=O)O)NC(=O)[C@H](CO)NC(=O)[C@@H](N)Cc1cnc[nH]1)C(=O)N[C@@H](Cc1ccccc1)C(=O)N[C@H](C(=O)N[C@@H](CC(=O)O)C(=O)N[C@@H](CO)C(=O)N[C@@H](Cc1ccc(O)cc1)C(=O)N[C@@H](CO)C(=O)N[C@@H](CCCNC(=N)N)C(=O)N[C@@H](Cc1ccc(O)cc1)C(=O)N[C@@H](CCCNC(=N)N)C(=O)N[C@@H](CCCCN)C(=O)N[C@@H](CCC(N)=O)C(=O)N[C@@H](CCSC)C(=O)N[C@@H](C)C(=O)N[C@H](C(=O)N[C@@H](CCCCN)C(=O)N[C@@H](CCCCN)C(=O)N[C@@H](Cc1ccc(O)cc1)C(=O)N[C@@H](CC(C)C)C(=O)N[C@@H](C)C(=O)N[C@@H](C)C(=O)N[C@H](C(=O)N[C@@H](CC(C)C)C(=O)NCC(=O)N[C@@H](CCCCN)C(=O)N[C@@H](CCCNC(=N)N)C(=O)N[C@@H](Cc1ccc(O)cc1)C(=O)N[C@@H](CCCCN)C(=O)N[C@@H](CCC(N)=O)C(=O)N[C@@H](CCCNC(=N)N)C(=O)N[C@H](C(=O)N[C@@H](CCCCN)C(=O)N[C@@H](CC(N)=O)C(=O)N[C@@H](CCCCN)C(N)=O)C(C)C)C(C)C)C(C)C)[C@@H](C)O [PACAP]
200	CC[C@H](C)[C@H](NC(=O)[C@H](CO)NC(=O)[C@H](CC(N)=O)NC(=O)[C@H](CC(C)C)NC(=O)[C@H](Cc1ccc(O)cc1)NC(=O)[C@H](CCCCN)NC(=O)[C@H](CCCCN)NC(=O)[C@@H](NC(=O)[C@H](C)NC(=O)[C@H](CCSC)NC(=O)[C@H](CCC(N)=O)NC(=O)[C@H](CCCCN)NC(=O)[C@H](CCCN=C(N)N)NC(=O)[C@H](CC(C)C)NC(=O)[C@H](CCCN=C(N)N)NC(=O)[C@@H](NC(=O)[C@H](Cc1ccc(O)cc1)NC(=O)[C@H](CC(N)=O)NC(=O)[C@H](CC(=O)O)NC(=O)[C@@H](NC(=O)[C@H](Cc1ccccc1)NC(=O)[C@@H](NC(=O)[C@H](C)NC(=O)[C@H](CC(=O)O)NC(=O)[C@@H](N)CO)C(C)C)[C@@H](C)O)[C@@H](C)O)C(C)C)C(=O)N[C@@H](CC(C)C)C(=O)N[C@@H](CC(N)=O)C(N)=O [VIP(2-28)] (H-SDAVFTDNYTRLRKQMAVKKYLNSILN-NH2)
3000	CC[C@H](C)[C@H](NC(=O)[C@H](CO)NC(=O)[C@H](CC(N)=O)NC(=O)[C@H](CC(C)C)NC(=O)[C@H](Cc1ccc(O)cc1)NC(=O)[C@H](CCCCN)NC(=O)[C@H](CCCCN)NC(=O)[C@@H](NC(=O)[C@H](C)NC(=O)[C@H](CCSC)NC(=O)[C@H](CCC(N)=O)NC(=O)[C@H](CCCCN)NC(=O)[C@H](CCCN=C(N)N)NC(=O)[C@H](CC(C)C)NC(=O)[C@H](CCCN=C(N)N)NC(=O)[C@@H](NC(=O)[C@H](Cc1ccc(O)cc1)NC(=O)[C@H](CC(N)=O)NC(=O)[C@H](CC(=O)O)NC(=O)[C@@H](NC(=O)[C@H](Cc1ccccc1)NC(=O)[C@@H](NC(=O)[C@H](C)NC(=O)[C@@H](N)CC(=O)O)C(C)C)[C@@H](C)O)[C@@H](C)O)C(C)C)C(=O)N[C@@H](CC(C)C)C(=O)N[C@@H](CC(N)=O)C(N)=O [VIP(3-28)] (H-DAVFTDNYTRLRKQMAVKKYLNSILN-NH2)

Compound	Ki [nM]
CC[C@H](C)[C@H](NC(=O)[C@H](CO)NC(=O)[C@H](CC(N)=O)NC(=O)[C@H](CC(C)C)NC(=O)[C@H](Cc1ccc(O)cc1)NC(=O)[C@H](CCCCN)NC(=O)[C@H](CCCCN)NC(=O)[C@@H](NC(=O)[C@H](C)NC(=O)[C@H](CCSC)NC(=O)[C@H](CCC(N)=O)NC(=O)[C@H](CCCCN)NC(=O)[C@H](CCCN=C(N)N)NC(=O)[C@H](CC(C)C)NC(=O)[C@H](CCCN=C(N)N)NC(=O)[C@@H](NC(=O)[C@H](Cc1ccc(O)cc1)NC(=O)[C@H](CC(N)=O)NC(=O)[C@H](CC(=O)O)NC(=O)[C@@H](NC(=O)[C@H](Cc1ccccc1)NC(=O)[C@@H](NC(=O)[C@H](C)NC(=O)[C@H](CC(=O)O)NC(=O)[C@H](CO)NC(=O)[C@H](N)Cc1cnc[nH]1)C(C)C)[C@@H](C)O)[C@@H](C)O)C(C)C)C(=O)N[C@@H](CC(C)C)C(=O)N[C@@H](CC(N)=O)C(N)=O [VIP [D-His1]]	200
